Measured values taken from paper PMC8175350, “Drug repurposing screens identify chemical entities for the development of COVID-19 interventions” (Nature Communications, 2021).
Where two headings read alike, the source gives them in different places.

Legend:
Calu-3 cells [1] = test: Uninfected Calu-3 48 h Cell-Titer Glo cytotoxicity counter screen; conditions: for Calu-3 uninfected cytotoxicity Sinf Average: curve-fit effect at infinite concentration
SARS-CoV-2 [2] = test: microbe, parasite or virus in culture; assay type: cell-based; conditions: for HeLa-ACE2 CoV-2 Sinf Average: curve-fit effect at infinite concentration
HeLa-ACE2 cells [3] = test: Uninfected HeLa-ACE2 24 h live/dead cytotoxicity counter screen; assay type: cell-based, human; conditions: for HeLa-ACE2 uninfected cytotoxicity Sinf Average: curve-fit effect at infinite concentration
SARS-CoV-2 [4] = test: microbe, parasite or virus in culture; assay type: cell-based; conditions: for Calu-3 CoV-2 Sinf Average: curve-fit effect at infinite concentration
HeLa-ACE2 cells [5] = conditions: for HeLa-ACE2 cell count Sinf Average: curve-fit effect at infinite concentration; for EC50: read-out: HeLa-ACE2 cell count EC50 GeoMean, unrounded geometric mean
Calu-3 cells [6] = conditions: for Calu-3 cell count Sinf Average: curve-fit effect at infinite concentration; for EC50: read-out: Calu-3 cell count EC50 GeoMean, unrounded geometric mean
HeLa-ACE2 cells [7] = test: cells; conditions: Homo sapiens, HeLa-ACE2, read-out: HeLa-ACE2 cell count EC50 GeoMean (µM), geometric mean of replicates
in vitro = conditions: human, Calu-3 uninfected cytotoxicity CC50 GeoMean (µM)
Calu-3 cells [8] = test system: Calu-3 cells
[9] = Uninfected HeLa-ACE2 24 h live/dead cytotoxicity counter screen; assay type: cell-based, human; conditions: human, uninfected HeLa-ACE2 cells, geometric mean of replicates; read-out: HeLa-ACE2 uninfected cytotoxicity CC50 GeoMean
Calu-3 cells [10] = test: cells; conditions: Homo sapiens
[11] = human, cited from earlier work
[12] = unrounded geometric mean, read-out: HeLa-ACE2 CoV-2 EC50 GeoMean
[13] = unrounded geometric mean, read-out: Calu-3 CoV-2 EC50 GeoMean
[14] = read-out: Calu-3 uninfected cytotoxicity CC50 GeoMean, unrounded geometric mean
[15] = unrounded geometric mean, read-out: HeLa-ACE2 uninfected cytotoxicity CC50 GeoMean

## COc1ccc(C[C@H]2NC[C@H](O)[C@H]2OC(C)=O)cc1 [Anisomycin]
Calu-3 cells [1]
  Calu-3 uninfected cytotoxicity Sinf Average: -66%
SARS-CoV-2 [2]
  HeLa-ACE2 CoV-2 Sinf Average: -102%
SARS-CoV-2 [2]; [12]
  EC50: 0.0664 µM
HeLa-ACE2 cells [3]
  HeLa-ACE2 uninfected cytotoxicity Sinf Average: -98%
SARS-CoV-2 [4]
  Calu-3 CoV-2 Sinf Average: -98%
SARS-CoV-2 [4]; [13]
  EC50: 0.127 µM
HeLa-ACE2 cells [5]
  HeLa-ACE2 cell count Sinf Average: -103%
  EC50: 0.636 µM
Calu-3 cells [6]
  Calu-3 cell count Sinf Average: 37%
  EC50: > 2.46 µM

## NS(=O)(=O)c1ccc(N2N=C(C(F)(F)F)CC2c2c[nH]c3c(Cl)cccc23)cc1 (stereo not drawn) [ON-09310]
Calu-3 cells [1]
  Calu-3 uninfected cytotoxicity Sinf Average: -97%
Calu-3 cells [1]; [14]
  CC50: 16.9 µM
SARS-CoV-2 [2]
  HeLa-ACE2 CoV-2 Sinf Average: -100%
SARS-CoV-2 [2]; [12]
  EC50: 3.72 µM
HeLa-ACE2 cells [3]
  HeLa-ACE2 uninfected cytotoxicity Sinf Average: -103%
HeLa-ACE2 cells [3]; [15]
  CC50: 8.2 µM
SARS-CoV-2 [4]
  Calu-3 CoV-2 Sinf Average: -95%
SARS-CoV-2 [4]; [13]
  EC50: 1.81 µM
HeLa-ACE2 cells [5]
  HeLa-ACE2 cell count Sinf Average: -100%
  EC50: > 9.33 µM
Calu-3 cells [6]
  Calu-3 cell count Sinf Average: 100%
  EC50: > 8.32 µM

## CC/C(=C(/c1ccc(/C=C/C(=O)O)cc1)c1ccc2[nH]ncc2c1)c1ccc(F)cc1Cl [ARN-810]
HeLa-ACE2 cells [7]
  EC50: > 9.59 µM
In vitro
  CC50 at 48 h: > 23.8 µM
Calu-3 cells [8]
  uninfected Calu-3 CC50 [μM]: > 23.843 ×÷ 1.22 (n=3) μM
Calu-3 cells [8]; human, 48 h
  Calu-3 uninfected cytotoxicity Sinf Average (%): -89%
SARS-CoV-2 [2]; Severe acute respiratory syndrome coronavirus 2, HeLa-ACE2, geometric mean of replicates, read-out: HeLa-ACE2 CoV-2 EC50 GeoMean
  EC50: > 9.59 µM
[9]
  CC50 at 24 h: 11 µM
HeLa-ACE2 cells [3]; Sinf average of the curves
  HeLa-ACE2 uninfected cytotoxicity Sinf Average (%): -99%
SARS-CoV-2 [4]; Severe acute respiratory syndrome coronavirus 2, Calu-3, 48 h, Sinf average of the curves, read-out: Calu-3 CoV-2 Sinf Average (%)
  Emax: 71%
SARS-CoV-2 [4]; Severe acute respiratory syndrome coronavirus 2, Calu-3, geometric mean of replicates, read-out: Calu-3 CoV-2 EC50 GeoMean
  EC50: 1.1 µM
HeLa-ACE2 cells [5]; Sinf average of the curves
  HeLa-ACE2 cell count Sinf Average (%): -100%
Calu-3 cells [10]; Calu-3, 48 h, read-out: Calu-3 cell count Sinf Average (%)
  Emax: 79%
Calu-3 cells [10]; Calu-3, read-out: Calu-3 cell count EC50 GeoMean (µM), geometric mean of replicates
  EC50: > 3.06 µM

## Mitoguazone
Calu-3 cells [1]; read-out: Calu-3 Uninf. cells CC50, reconfirmed hits
  CC50: > 30 µM
Calu-3 cells [1]; [14]
  CC50: > 29.9 µM
SARS-CoV-2 [2]
  HeLa-ACE2 CoV-2 Sinf Average: -100%
SARS-CoV-2 [2]; reconfirmed hits, read-out: HeLa-ACE2 SARS-CoV-2 EC50
  EC50: > 9.6 µM
SARS-CoV-2 [2]; [12]
  EC50: > 9.59 µM
HeLa-ACE2 cells [3]
  HeLa-ACE2 uninfected cytotoxicity Sinf Average: -99%
HeLa-ACE2 cells [3]; reconfirmed hits, read-out: HeLa-ACE2 Uninf. cells CC50
  CC50: > 40 µM
HeLa-ACE2 cells [3]; [15]
  CC50: > 39.8 µM
SARS-CoV-2 [4]
  Calu-3 CoV-2 Sinf Average: -94%
SARS-CoV-2 [4]; reconfirmed hits, read-out: Calu-3 SARS-CoV-2 EC50
  EC50: 0.446 µM
SARS-CoV-2 [4]; [13]
  EC50: 0.446 µM
Calu-3 cells [6]
  Calu-3 cell count Sinf Average: 71%
  EC50: > 4.07 µM
[11]; ref [33]-[49]
  Approx. t1/2: 175 h
[11]; read-out: Approx. Cmax, IV, ref [44]
  Cmax: 120 µM

## Oligomycin A
SARS-CoV-2 [2]; [12]
  EC50: > 9.59 µM
SARS-CoV-2 [4]; [13]
  EC50: < 0.00735 µM
HeLa-ACE2 cells [5]
  EC50: > 9.59 µM
Calu-3 cells [6]
  Calu-3 cell count Sinf Average: 50%
  EC50: > 0.22 µM
